Results on three compounds are retold here after patent publication US20140228445A1, “ALKYNE DERIVATIVES AS SPHINGOSINE 1-PHOSPHATE (S1P) RECEPTOR MODULATORS” (Allergan, Inc., priority 2013, published 2014).

Structures are written as SMILES.

T1 sequence (P21453 whole entry): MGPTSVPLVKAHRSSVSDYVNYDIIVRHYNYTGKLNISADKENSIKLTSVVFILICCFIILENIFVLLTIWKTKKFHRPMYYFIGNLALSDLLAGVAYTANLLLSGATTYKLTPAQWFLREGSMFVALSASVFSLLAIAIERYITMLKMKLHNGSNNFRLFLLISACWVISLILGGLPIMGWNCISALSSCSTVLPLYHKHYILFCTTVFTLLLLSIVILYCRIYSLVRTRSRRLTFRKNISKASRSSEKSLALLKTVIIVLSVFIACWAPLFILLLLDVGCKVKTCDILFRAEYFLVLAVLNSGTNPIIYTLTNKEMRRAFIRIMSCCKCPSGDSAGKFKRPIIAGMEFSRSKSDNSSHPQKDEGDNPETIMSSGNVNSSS

The assay addresses T1, human S1P1 receptor (Homo sapiens, UniProt P21453).
T1 construct: expressed in transfected cells; membranes used
Briefly: GTP γ35S binding assay for S1P1 activity. The assay is classed as biochemical. The following applies: membranes of cells stably expressing the S1P1 receptor, test range 0.08 to 5,000 nM. The protocol: Compounds were synthesized and tested for S1P1 activity using the GTP γ^35S binding assay. These compounds may be assessed for their ability to activate or block activation of the human S1P1 receptor in cells stably expressing the S1P1 receptor.
GTP γ^35S binding was measured in the medium containing (mM) HEPES 25, pH 7.4, MgCl2 10, NaCl 100, dithitothreitol 0.5, digitonin 0.003%, 0.2 nM GTP γ^35S, and 5 μg membrane protein in a volume of 150 μl. Test compounds were included in the concentration range from 0.08 to 5,000 nM unless indicated otherwise. Membranes were incubated with 100 μM 5′-adenylylimmidodiphosphate for 30 min, and subsequently with 10 μM GDP for 10 min on ice. Drug solutions and membrane were mixed, and then reactions were initiated by adding GTP γ^35S and continued for 30 min at 25° C. Reaction mixtures were filtered over Whatman GF/B filters under vacuum, and washed three times with 3 mL of ice-cold buffer (HEPES 25, pH7.4, MgCl2 10 and NaCl 100). Filters were dried and mixed with scintillant, and counted for ^35S activity using a β-counter. Agonist-induced GTP γ^35S binding was obtained by subtracting that in the absence of agonist. Binding data were analyzed using a non-linear regression method. In case of antagonist assay, the reaction mixture contained 10 nM S1P in the presence of test antagonist at concentrations ranging from 0.08 to 5000 nM.
Take `Cc1cccc(C(C#Cc2ccc(CCC(N)(CO)CO)cc2)Cc2ccc(C)c(C)c2)c1` (stereo not drawn) [Compound 3, 2-Amino-2-(2-{4-[4-(3,4-dimethylphenyl)-3-(3-methylphenyl)but-1-yn-1-yl]phenyl}ethyl)propane-1,3-diol]: it took 416 nM to reach a half-maximal effect (EC50).

Compound `Cc1ccc(CC(C#Cc2ccc(CCC(N)(CO)CO)cc2)c2cccc(F)c2)cc1C` (stereo not drawn) [Compound 2, 2-Amino-2-(2-{4-[4-(3,4-dimethylphenyl)-3-(3-fluorophenyl)but-1-yn-1-yl]phenyl}ethyl)propane-1,3-diol] came in with an EC50 of 3.27 nM. This EC50 is about 130-fold lower than that of the compound before.

Regarding `Cc1ccc(CC(C#Cc2ccc(CCC(N)(CO)CO)cc2)c2cc(F)cc(F)c2)cc1C` (stereo not drawn) [Compound 1, 2-Amino-2-(2-{4-[3-(3,5-difluorophenyl)-4-(3,4-dimethylphenyl)but-1-yn-1-yl]phenyl}ethyl)propane-1,3-diol], a half-maximal effect (EC50) was put at 35.5 nM. This EC50 lies about 11-fold higher than the previous one.

For orientation: EC50 means the concentration that produces a half-maximal response. A higher EC50 goes with a need for much substance.
